# Measurements reported in PubChem BioAssay AID1919003 (Molecular Pharmacology Branch, DTP, NCI, 2023).
# Tested on: 786-0 complex spheroids with HUVEC/MSC, growth % test/control
# Experiment: Anticancer human tumor 786-0 cell line growth inhibition [AhR];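 further: compound exposure lasted seven days before the read-out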
# Details: for IC50: curve of first compound; for viability, T/C: stronger effect = lower value
# Method in brief: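 Spheroids combined tumor cells with HUVEC endothelial cells and human MSCs as stroma. AhR antagonists were paired with standard or investigational drugs, each dosed in half-log steps down from near clinical Cmax, or from 10 microM where Cmax was unknown.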
smiles,measurement,setting,value
CC1(C)CCC(CN2CCN(c3ccc(C(=O)NS(=O)(=O)c4ccc(NCC5CCOCC5)c([N+](=O)[O-])c4)c(Oc4cnc5[nH]ccc5c4)c3)CC2)=C(c2ccc(Cl)cc2)C1 + Cc1ccccc1N=Nc1ccc(NC(=O)c2ccnn2C)c(C)c1,IC50,second compound 0.1 µM,> 10 µM
same,IC50,second compound 0.316 µM,> 10 µM
same,IC50,second compound 1 µM,> 10 µM
same,IC50,second compound 3.16 µM,> 10 µM
same,IC50,second compound 10 µM,> 10 µM
same,"viability, T/C","second compound 0.1 µM, first compound 0.0316 µM",97.2%
same,"viability, T/C","second compound 0.1 µM, first compound 0.1 µM",103%
same,"viability, T/C","second compound 0.1 µM, first compound 0.316 µM",95.2%
same,"viability, T/C","second compound 0.1 µM, first compound 1 µM",109%
same,"viability, T/C","second compound 0.1 µM, first compound 3.16 µM",89.5%
same,"viability, T/C","second compound 0.1 µM, first compound 10 µM",83.8%
same,"viability, T/C","second compound 0.316 µM, first compound 0.0316 µM",109%
same,"viability, T/C","second compound 0.316 µM, first compound 0.1 µM",99%
same,"viability, T/C","second compound 0.316 µM, first compound 0.316 µM",102%
same,"viability, T/C","second compound 0.316 µM, first compound 1 µM",106%
same,"viability, T/C","second compound 0.316 µM, first compound 3.16 µM",97.8%
same,"viability, T/C","second compound 0.316 µM, first compound 10 µM",77.9%
same,"viability, T/C","second compound 1 µM, first compound 0.0316 µM",97.5%
same,"viability, T/C","second compound 1 µM, first compound 0.1 µM",95.1%
same,"viability, T/C","second compound 1 µM, first compound 0.316 µM",96.7%
same,"viability, T/C","second compound 1 µM, first compound 1 µM",99.4%
same,"viability, T/C","second compound 1 µM, first compound 3.16 µM",91.8%
same,"viability, T/C","second compound 1 µM, first compound 10 µM",80%
same,"viability, T/C","second compound 3.16 µM, first compound 0.0316 µM",95.6%
same,"viability, T/C","second compound 3.16 µM, first compound 0.1 µM",96.9%
same,"viability, T/C","second compound 3.16 µM, first compound 0.316 µM",99.2%
same,"viability, T/C","second compound 3.16 µM, first compound 1 µM",90.4%
same,"viability, T/C","second compound 3.16 µM, first compound 3.16 µM",77.1%
same,"viability, T/C","second compound 3.16 µM, first compound 10 µM",82.9%
same,"viability, T/C","second compound 10 µM, first compound 0.0316 µM",94.6%
same,"viability, T/C","second compound 10 µM, first compound 0.1 µM",96.3%
same,"viability, T/C","second compound 10 µM, first compound 0.316 µM",88.3%
same,"viability, T/C","second compound 10 µM, first compound 1 µM",87.8%
same,"viability, T/C","second compound 10 µM, first compound 3.16 µM",75.7%
same,"viability, T/C","second compound 10 µM, first compound 10 µM",65.5%
CCN(c1cc(-c2ccc(CN3CCOCC3)cc2)cc(C(=O)NCc2c(C)cc(C)[nH]c2=O)c1C)C1CCOCC1 + Cc1ccccc1N=Nc1ccc(NC(=O)c2ccnn2C)c(C)c1,IC50,second compound 0.1 µM,> 3 µM
same,IC50,second compound 0.316 µM,> 3 µM
same,IC50,second compound 1 µM,> 3 µM
same,IC50,second compound 3.16 µM,> 3 µM
same,IC50,second compound 10 µM,> 3 µM
same,"viability, T/C","second compound 0.1 µM, first compound 0.00949 µM",106%
same,"viability, T/C","second compound 0.1 µM, first compound 0.03 µM",104%
same,"viability, T/C","second compound 0.1 µM, first compound 0.0949 µM",98.3%
same,"viability, T/C","second compound 0.1 µM, first compound 0.3 µM",107%
same,"viability, T/C","second compound 0.1 µM, first compound 0.949 µM",101%
same,"viability, T/C","second compound 0.1 µM, first compound 3 µM",110%
same,"viability, T/C","second compound 0.316 µM, first compound 0.00949 µM",104%
same,"viability, T/C","second compound 0.316 µM, first compound 0.03 µM",106%
same,"viability, T/C","second compound 0.316 µM, first compound 0.0949 µM",116%
same,"viability, T/C","second compound 0.316 µM, first compound 0.3 µM",111%
same,"viability, T/C","second compound 0.316 µM, first compound 0.949 µM",119%
same,"viability, T/C","second compound 0.316 µM, first compound 3 µM",118%
same,"viability, T/C","second compound 1 µM, first compound 0.00949 µM",112%
same,"viability, T/C","second compound 1 µM, first compound 0.03 µM",106%
same,"viability, T/C","second compound 1 µM, first compound 0.0949 µM",106%
same,"viability, T/C","second compound 1 µM, first compound 0.3 µM",97.4%
same,"viability, T/C","second compound 1 µM, first compound 0.949 µM",102%
same,"viability, T/C","second compound 1 µM, first compound 3 µM",98.6%
same,"viability, T/C","second compound 3.16 µM, first compound 0.00949 µM",109%
same,"viability, T/C","second compound 3.16 µM, first compound 0.03 µM",114%
same,"viability, T/C","second compound 3.16 µM, first compound 0.0949 µM",102%
same,"viability, T/C","second compound 3.16 µM, first compound 0.3 µM",93.3%
same,"viability, T/C","second compound 3.16 µM, first compound 0.949 µM",116%
same,"viability, T/C","second compound 3.16 µM, first compound 3 µM",94.2%
same,"viability, T/C","second compound 10 µM, first compound 0.00949 µM",106%
same,"viability, T/C","second compound 10 µM, first compound 0.03 µM",102%
same,"viability, T/C","second compound 10 µM, first compound 0.0949 µM",89.2%
same,"viability, T/C","second compound 10 µM, first compound 0.3 µM",100%
same,"viability, T/C","second compound 10 µM, first compound 0.949 µM",98.3%
same,"viability, T/C","second compound 10 µM, first compound 3 µM",103%
